Measurements reported in the supplement of paper PMC10307832.

Experiments:
BAY61-3606 + Vorinostat = compound: COC1=C(C=C(C=C1)C2=CC3=NC=CN3C(=N2)NC4=C(C=CC=N4)C(=O)N)OC [BAY61-3606] + O=C(CCCCCCC(=O)Nc1ccccc1)NO [Vorinostat] (partner 1 µM); assay: relative viability (nuclei count vs DMSO), 5 days (fraction); higher = more cells survive
Procedure, shortened: (§1)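 Lung cancer cell lines were pin-tool dosed in 1536-well plates on the day after seeding, with either a lone drug or a fixed anchor-drug dose plus five library-drug doses (not always all listed) in √10 steps. Nuclei were counted on 4× images after 5 days. Relative viability is the ratio of treated-well to vehicle-well nuclei counts, with each value a median of duplicate plates.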

BAY61-3606 + AZD7762 = compound: COC1=C(C=C(C=C1)C2=CC3=NC=CN3C(=N2)NC4=C(C=CC=N4)C(=O)N)OC [BAY61-3606] + NC(=O)Nc1cc(-c2cccc(F)c2)sc1C(=O)N[C@H]1CCCNC1 [AZD7762] (partner 0.2 µM); assay: as above
Procedure, shortened: as §1

| Cell Line | relative viability (BAY61-3606 + Vorinostat; first compound 0.02 µM) | relative viability (BAY61-3606 + Vorinostat; first compound 0.06325 µM) | relative viability (BAY61-3606 + Vorinostat; first compound 0.2 µM) | relative viability (BAY61-3606 + Vorinostat; first compound 0.6325 µM) | relative viability (BAY61-3606 + Vorinostat; first compound 2 µM) | relative viability (BAY61-3606 + AZD7762; first compound 0.02 µM) | relative viability (BAY61-3606 + AZD7762; first compound 0.06325 µM) | relative viability (BAY61-3606 + AZD7762; first compound 0.2 µM) | relative viability (BAY61-3606 + AZD7762; first compound 0.6325 µM) | relative viability (BAY61-3606 + AZD7762; first compound 2 µM) |
| --- | --- | --- | --- | --- | --- | --- | --- | --- | --- | --- |
| NCI-H727 | 1.03 | 1.12 | 1.07 | 1.17 | 1.24 | 0.747 | 0.509 | 0.577 | 0.75 | 0.734 |
| A-427 | 0.991 | 0.869 | 0.876 | 0.875 | 0.888 | 0.831 | 0.689 | 0.659 | 0.752 | 0.682 |
| EMC-BAC-2 | 0.499 | 0.385 | 0.6 | 0.42 | 0.425 | 1.12 | 0.888 | 1.1 | 1.32 | 1.12 |
| NCI-H647 | 0.598 | 0.566 | 0.441 | 0.529 | 0.287 | 0.433 | 0.393 | 0.383 | 0.444 | 0.324 |
| LCLC-97TM1 | 0.893 | 0.818 | 0.534 | 0.778 | 0.589 | 0.204 | 0.326 | 0.228 | 0.393 | 0.345 |
| HOP-62 | – | 0.544 | 0.538 | 0.667 | 0.397 | – | 0.643 | 0.517 | 0.748 | 0.531 |
| NCI-H1437 | 0.919 | 0.915 | 0.856 | 0.925 | 0.751 | 1.14 | 1.08 | 1.17 | 1.21 | 1.12 |
| NCI-H1755 | 0.871 | 0.676 | 0.764 | 0.803 | 0.733 | 0.439 | 0.483 | 0.462 | 0.422 | 0.59 |
| HARA | 0.547 | 0.47 | 0.415 | 0.462 | 0.466 | 0.286 | 0.291 | 0.452 | 0.303 | 0.3 |
| HCC-15 | 0.976 | 0.915 | 0.866 | 0.945 | 0.803 | 1.31 | 0.919 | 1.29 | 1.25 | 1.16 |
| LOU-NH91 | 1.03 | 0.796 | 0.871 | 0.915 | 0.858 | 0.792 | 0.686 | 0.748 | 0.784 | 0.656 |
| NCI-H23 | 0.542 | 0.701 | 0.53 | 0.553 | 0.501 | 0.227 | 0.192 | 0.251 | 0.265 | 0.224 |
| NCI-H1666 | 1.02 | 1.14 | 1.12 | 1.05 | 1.18 | 0.917 | 0.895 | 0.852 | 0.834 | 0.82 |
| NCI-H358 | 0.697 | 0.759 | 0.631 | 0.658 | 0.386 | 0.489 | 0.502 | 0.469 | 0.468 | 0.261 |
| NCI-H2085 | 0.885 | 0.766 | 0.796 | 0.839 | 0.811 | 1.01 | 1.08 | 0.969 | 1.1 | 0.942 |
| LCLC-103H | 0.782 | 0.716 | 0.724 | 0.791 | 0.789 | 0.762 | 0.704 | 0.836 | 0.758 | 0.769 |
| NCI-H1734 | 0.826 | 0.804 | 0.651 | 0.769 | 0.441 | 0.554 | 0.508 | 0.557 | 0.502 | 0.374 |

| Cell Line | relative viability (BAY61-3606 + Vorinostat; first compound 0.02 µM) | relative viability (BAY61-3606 + Vorinostat; first compound 0.06325 µM) | relative viability (BAY61-3606 + Vorinostat; first compound 0.2 µM) | relative viability (BAY61-3606 + Vorinostat; first compound 0.6325 µM) | relative viability (BAY61-3606 + Vorinostat; first compound 2 µM) | relative viability (BAY61-3606 + AZD7762; first compound 0.02 µM) | relative viability (BAY61-3606 + AZD7762; first compound 0.06325 µM) | relative viability (BAY61-3606 + AZD7762; first compound 0.2 µM) | relative viability (BAY61-3606 + AZD7762; first compound 0.6325 µM) | relative viability (BAY61-3606 + AZD7762; first compound 2 µM) |
| --- | --- | --- | --- | --- | --- | --- | --- | --- | --- | --- |
| NCI-H441 | 0.997 | 0.88 | 0.916 | 0.803 | 0.678 | 1.21 | 1.29 | 1.04 | 1.3 | 0.974 |
| H3255 | 0.817 | 0.8 | 0.749 | 0.75 | 0.86 | 0.941 | 0.775 | 1.03 | 0.942 | 0.902 |
| NCI-H1915 | 0.515 | 0.528 | 0.478 | 0.511 | 0.483 | 0.658 | 0.708 | 0.641 | 0.659 | 0.66 |
| NCI-H1793 | 0.842 | 0.83 | 0.684 | 1.04 | 0.989 | 0.483 | 0.277 | 0.448 | 0.636 | 0.504 |
| NCI-H1651 | 0.62 | 0.509 | 0.523 | 0.539 | 0.542 | 0.517 | 0.454 | 0.463 | 0.52 | 0.498 |
| NCI-H2126 | 0.799 | 0.761 | 0.733 | 0.747 | 0.619 | 1.06 | 1.09 | 0.999 | 1.02 | 0.954 |
| HCC-44 | 1.05 | 1.05 | 1 | 0.966 | 1.26 | 1.01 | 1.1 | 0.962 | 1.01 | 1.1 |
| RERF-LC-KJ | 0.701 | 0.684 | 0.704 | 0.881 | 0.614 | 1.07 | 0.846 | 1.03 | 0.872 | 0.869 |
| LXF-289 | 0.802 | 0.839 | 0.666 | 0.849 | 0.782 | 1.13 | 1.1 | 1.04 | 1.24 | 1.24 |
| NCI-H838 | 0.743 | 0.74 | 0.7 | 0.652 | 0.553 | 1.06 | 0.847 | 0.954 | 0.908 | 0.895 |
| HCC-827 | 0.858 | 0.828 | 1.04 | 0.85 | 0.941 | 0.219 | 0.176 | 0.211 | 0.215 | 0.207 |
| NCI-H1792 | – | – | – | – | – | 0.783 | 0.538 | 0.802 | 0.62 | 0.455 |
| NCI-H460 | 0.786 | 0.862 | 0.709 | 0.65 | 0.447 | 0.63 | 0.646 | 0.739 | 0.631 | 0.766 |
| NCI-H1648 | 0.797 | 0.44 | 0.648 | – | 0.706 | 0.723 | 0.696 | 0.777 | – | 0.643 |
| NCI-H522 | 0.896 | 0.869 | 0.839 | 0.733 | 0.661 | 0.796 | 0.698 | 0.692 | 0.762 | 0.822 |
| NCI-H3122 | 1.01 | 1.03 | 0.893 | 1.05 | 0.95 | 0.989 | 0.968 | 0.962 | 1.02 | 0.945 |
